# Experiments:
# Type in all cases: functional
# Staphylococcus aureus [1] = test: Antibacterial activity against methicillin-resistant Staphylococcus aureus assessed growth inhibition by micro broth dilution method
# Staphylococcus aureus [2] = test: Antibacterial activity against Staphylococcus aureus ATCC 25923 assessed growth inhibition by micro broth dilution method
# Staphylococcus aureus [3] = test: Antibacterial activity against Staphylococcus aureus assessed growth inhibition by micro broth dilution method
# Escherichia coli [4] = test: Antibacterial activity against Escherichia coli ATCC 25922 assessed growth inhibition by micro broth dilution method
# Pseudomonas aeruginosa [5] = test: Antibacterial activity against Pseudomonas aeruginosa ATCC 27853 assessed growth inhibition by micro broth dilution method
# Pseudomonas aeruginosa [6] = test: Antibacterial activity against Pseudomonas aeruginosa assessed growth inhibition by micro broth dilution method
# Staphylococcus aureus [7] = test: Antibacterial activity against Staphylococcus aureus ATCC 29213 assessed growth inhibition by micro broth dilution method
# Escherichia coli [8] = test: Antibacterial activity against Escherichia coli assessed growth inhibition by micro broth dilution method
# Acinetobacter baumannii = test: Antibacterial activity against Acinetobacter baumannii assessed growth inhibition by micro broth dilution method
# Klebsiella pneumoniae = test: Antibacterial activity against Klebsiella pneumonia assessed growth inhibition by micro broth dilution method
# Enterococcus faecalis = test: Antibacterial activity against Enterococcus faecalis assessed growth inhibition by micro broth dilution method
SMILES,MIC (Staphylococcus aureus [1]),MIC (Staphylococcus aureus [2]),MIC (Staphylococcus aureus [3]),MIC (Escherichia coli [4]),MIC (Pseudomonas aeruginosa [5]),MIC (Pseudomonas aeruginosa [6]),MIC (Staphylococcus aureus [7]),MIC (Escherichia coli [8]),MIC (Acinetobacter baumannii),MIC (Klebsiella pneumoniae),MIC (Enterococcus faecalis)
CCOC(=O)c1cn(Cc2ccccc2)c2cc(C(C#N)C(=O)OCC)c(F)cc2c1=O (centres undefined),32 µg/mL,2 µg/mL,8 µg/mL,16 µg/mL,2 µg/mL,0.5 µg/mL,2 µg/mL,32 µg/mL,8 µg/mL,2 µg/mL,16 µg/mL
CCOC(=O)C(C#N)c1cc2c(cc1F)c(=O)c(C(=O)O)cn2CC (centres undefined),4 µg/mL,4 µg/mL,4 µg/mL,0.5 µg/mL,4 µg/mL,8 µg/mL,16 µg/mL,32 µg/mL,8 µg/mL,1 µg/mL,64 µg/mL
CCOC(=O)c1cn(C2CC2)c2cc(C(C#N)C(=O)OCC)c(F)cc2c1=O (centres undefined),128 µg/mL,8 µg/mL,16 µg/mL,32 µg/mL,64 µg/mL,8 µg/mL,32 µg/mL,32 µg/mL,32 µg/mL,8 µg/mL,32 µg/mL
CCOC(=O)c1cn(Cc2ccc(Cl)cc2)c2cc([C-](C#N)C(=O)OCC)c(F)cc2c1=O.[Na+] (centres undefined),64 µg/mL,1 µg/mL,64 µg/mL,1 µg/mL,2 µg/mL,16 µg/mL,2 µg/mL,0.5 µg/mL,64 µg/mL,2 µg/mL,1 µg/mL
CCOC(=O)c1cn(Cc2ccc(C)cc2)c2cc(F)c(F)cc2c1=O,256 µg/mL,64 µg/mL,64 µg/mL,128 µg/mL,256 µg/mL,128 µg/mL,128 µg/mL,1 µg/mL,2 µg/mL,128 µg/mL,64 µg/mL
CCOC(=O)c1cn(CC(=O)N2CCN(C(=O)OC(C)(C)C)CC2)c2cc([C-](C#N)C(=O)OCC)c(F)cc2c1=O.[Na+] (centres undefined),32 µg/mL,16 µg/mL,256 µg/mL,16 µg/mL,4 µg/mL,64 µg/mL,32 µg/mL,16 µg/mL,32 µg/mL,128 µg/mL,64 µg/mL
CCOC(=O)c1cn(C)c2cc([C-](C#N)C(=O)OCC)c(F)cc2c1=O.[Na+] (centres undefined),64 µg/mL,1 µg/mL,128 µg/mL,16 µg/mL,32 µg/mL,32 µg/mL,64 µg/mL,32 µg/mL,32 µg/mL,32 µg/mL,32 µg/mL
CCOC(=O)c1cn(Cc2ccc(Cl)c(Cl)c2)c2cc(F)c(F)cc2c1=O,256 µg/mL,256 µg/mL,16 µg/mL,2 µg/mL,64 µg/mL,32 µg/mL,256 µg/mL,8 µg/mL,256 µg/mL,0.5 µg/mL,128 µg/mL
CCOC(=O)c1cn(Cc2ccc(F)cc2F)c2cc(F)c(F)cc2c1=O,256 µg/mL,256 µg/mL,256 µg/mL,128 µg/mL,256 µg/mL,64 µg/mL,256 µg/mL,16 µg/mL,16 µg/mL,0.25 µg/mL,256 µg/mL
CCOC(=O)c1cn(Cc2ccc(Cl)cc2)c2cc(F)c(F)cc2c1=O,256 µg/mL,256 µg/mL,64 µg/mL,128 µg/mL,256 µg/mL,256 µg/mL,256 µg/mL,1 µg/mL,4 µg/mL,32 µg/mL,64 µg/mL
CCOC(=O)c1cn(CC=C(C)C)c2cc([C-](C#N)C(=O)OCC)c(F)cc2c1=O.[Na+] (centres undefined),256 µg/mL,0.5 µg/mL,256 µg/mL,8 µg/mL,8 µg/mL,256 µg/mL,8 µg/mL,256 µg/mL,256 µg/mL,8 µg/mL,256 µg/mL
NC1CCN(c2c(F)cc3c(=O)c(C(=O)O)cn(C4CC4)c3c2Cl)C1 (centres undefined) [CLINAFLOXACIN],1 µg/mL,0.5 µg/mL,0.5 µg/mL,0.25 µg/mL,0.5 µg/mL,0.5 µg/mL,0.5 µg/mL,0.25 µg/mL,0.5 µg/mL,0.5 µg/mL,4 µg/mL
CCOC(=O)c1cn(C2CC2)c2cc(F)c(F)cc2c1=O,256 µg/mL,16 µg/mL,64 µg/mL,64 µg/mL,256 µg/mL,32 µg/mL,128 µg/mL,16 µg/mL,256 µg/mL,64 µg/mL,128 µg/mL
CCOC(=O)c1cn(CC2CCCC2)c2cc(F)c(F)cc2c1=O,256 µg/mL,16 µg/mL,64 µg/mL,128 µg/mL,256 µg/mL,128 µg/mL,128 µg/mL,8 µg/mL,256 µg/mL,32 µg/mL,256 µg/mL
CCOC(=O)c1cn(Cc2cccc(Cl)c2)c2cc([C-](C#N)C(=O)OCC)c(F)cc2c1=O.[Na+] (centres undefined),64 µg/mL,1 µg/mL,128 µg/mL,2 µg/mL,2 µg/mL,16 µg/mL,2 µg/mL,0.5 µg/mL,64 µg/mL,4 µg/mL,1 µg/mL
C=CCn1cc(C(=O)OCC)c(=O)c2cc(F)c([C-](C#N)C(=O)OCC)cc21.[Na+] (centres undefined),128 µg/mL,2 µg/mL,128 µg/mL,16 µg/mL,16 µg/mL,16 µg/mL,32 µg/mL,32 µg/mL,16 µg/mL,32 µg/mL,64 µg/mL
CCOC(=O)c1cn(CC)c2cc([C-](C#N)C(=O)OCC)c(F)cc2c1=O.[Na+] (centres undefined),64 µg/mL,2 µg/mL,256 µg/mL,32 µg/mL,32 µg/mL,32 µg/mL,64 µg/mL,64 µg/mL,32 µg/mL,32 µg/mL,64 µg/mL
CCOC(=O)c1cn(Cc2ccc(Cl)cc2Cl)c2cc(F)c(F)cc2c1=O,256 µg/mL,256 µg/mL,128 µg/mL,32 µg/mL,256 µg/mL,128 µg/mL,256 µg/mL,16 µg/mL,256 µg/mL,0.5 µg/mL,256 µg/mL
CCOC(=O)c1cn(Cc2ccccc2)c2cc(F)c(F)cc2c1=O,256 µg/mL,256 µg/mL,128 µg/mL,128 µg/mL,256 µg/mL,256 µg/mL,256 µg/mL,2 µg/mL,2 µg/mL,256 µg/mL,128 µg/mL

# From ChEMBL document CHEMBL5528028, “Discovery of benzopyridone cyanoacetates as new type of potential broad-spectrum antibacterial candidates” (Eur J Med Chem, 2024)
